# Reference: patent publication US20070299098A1, “Therapeutic Agent for Neuropathic Pain” (Japan Science and Technology Agency, priority 2004, published 2007)
# Tests used:
# [1] = test system: hyperalgesia model induced by complete ligation of the L5/L6 spinal nerves; assay: Thermal stimulation test (plantar thermal stimulation tester), left plantar pain threshold in hyperalgesia model; assay type: in vivo, rats; settings: for maximum pain threshold following administration (thermal stimulation): thermal stimulation intensity 35, measured 20, 40, 60 min after administration, male rats; for change of pain threshold versus saline control, in words (thermal stimulation): intraperitoneal, effective doses
# Experimental: (§1) Use was made of a hyperalgesia model induced by complete ligation of the L5/L6 spinal nerves in five- to seven-week-old male rats as the experimental animals.
# (§2) Mechanical stimulation tests were carried out using the Ugo Basile Model 37400 Dynamic Plantar Aesthesiometer, and thermal stimulation tests were carried out using a plantar thermal stimulation tester (Plantar Test 7370, Ugo Basile). The pain thresholds of the feet on each model animal were measured, and the animals were divided into groups having uniform pain thresholds as measured prior to administration on each day of the experiment. In mechanical stimulation, animals for which the model animal foot pain threshold was 8.0 g or more were excluded from the tests. In thermal stimulation, animals for which the pain threshold for the model foot was 10 seconds or more were excluded from the tests.
# (§3) The required amount of the test substance was weighed out and dissolved in physiological saline as the medium. A 2 mg/ml solution was prepared as the highest concentration mixture in the low dosage study, and a 24 mg/ml solution was prepared as the highest concentration mixture in the high dosage study. Solutions at the various concentrations were all prepared at the time of use by suitably diluting these highest concentration mixtures.
# Using the syringe barrel and needle, a volume of 5 ml/kg was administrated intraperitoneally.
# Groups of five male rats (356.7 to 444.0 g) in which the hyperalgesia model had been induced were used.
# Groups of five male rats (400.3 to 499.9 g) in which the hyperalgesia model had been induced were used.
# Groups of five male rats (324.8 to 399.0 g) in which the hyperalgesia model had been induced were used.
# (§4) Groups of five male rats (307.0 to 393.1 g) in which the hyperalgesia model had been induced were used. A plantar thermal stimulation tester set to a thermal stimulation intensity of 35 was used to measure the left plantar pain threshold before naloxonazine administration, and 20 minutes, 40 minutes and 60 minutes after administration.
# as §4, with “(365.3” for “(307.0”, “437.2” for “393.1”, “naltrindole” for “naloxonazine”
# [2] = test system: hyperalgesia model induced by complete ligation of the L5/L6 spinal nerves; assay: Mechanical stimulation test (Dynamic Plantar Aesthesiometer), left plantar pain threshold in hyperalgesia model; assay type: in vivo, rats; settings: for maximum pain threshold following administration (mechanical stimulation): measured 20, 40, 60 min after administration, male rats; for change of pain threshold versus saline control, in words (mechanical stimulation): intraperitoneal, effective doses, Dunnett's multiple comparison test
# Experimental: as §1, §2, §3
# Although the object here is to ascertain the direct effect of the test substance on the spinal cord, because the substance has been confirmed to pass through the blood-brain barrier, intraperitoneal administration, which is a simple method of administration, was employed. Using the syringe barrel and needle, a volume of 5 ml/kg was administrated intraperitoneally.
# Groups of five male rats (333.7 to 414.2 g) in which the hyperalgesia model had been induced were used.
# Groups of five male rats (372.0 to 459.5 g) in which the hyperalgesia model had been induced were used.
# Groups of five male rats (295.6 to 356.6 g) in which the hyperalgesia model had been induced were used. […]
# [3] = high dose study, 30-120 mg/kg intraperitoneal
SMILES,maximum pain threshold following administration (thermal stimulation) ([1]; 0.3 mg/kg intraperitoneal) [s],maximum pain threshold following administration (thermal stimulation) ([1]; 3 mg/kg intraperitoneal) [s],maximum pain threshold following administration (thermal stimulation) ([1]; 30 mg/kg intraperitoneal) [s],"change of pain threshold versus saline control, in words (thermal stimulation) [1]",maximum pain threshold following administration (mechanical stimulation) ([2]; 0.3 mg/kg intraperitoneal) [g],maximum pain threshold following administration (mechanical stimulation) ([2]; 3 mg/kg intraperitoneal) [g],maximum pain threshold following administration (mechanical stimulation) ([2]; 30 mg/kg intraperitoneal) [g],"change of pain threshold versus saline control, in words (mechanical stimulation) [2]",maximum pain threshold following administration (thermal stimulation) ([1]; 0.1 mg/kg intraperitoneal) [s],maximum pain threshold following administration (thermal stimulation) ([1]; 1 mg/kg intraperitoneal) [s],maximum pain threshold following administration (thermal stimulation) ([1]; 120 mg/kg intraperitoneal) [s],"dose at which the analgesic effect reached its peak (thermal stimulation) [1, 3] [mg/kg]",maximum pain threshold following administration (mechanical stimulation) ([2]; 0.1 mg/kg intraperitoneal) [g],maximum pain threshold following administration (mechanical stimulation) ([2]; 1 mg/kg intraperitoneal) [g],maximum pain threshold following administration (mechanical stimulation) ([2]; 10 mg/kg intraperitoneal) [g],maximum pain threshold following administration (mechanical stimulation) ([2]; 60 mg/kg intraperitoneal) [g],maximum pain threshold following administration (mechanical stimulation) ([2]; 120 mg/kg intraperitoneal) [g],"dose at which the analgesic effect reached its peak (mechanical stimulation) [2, 3] [mg/kg]"
C=CCN1CC[C@]23c4c5ccc(O)c4O[C@H]2/C(=N/N=C2\CC[C@@]4(O)[C@H]6Cc7ccc(O)c8c7[C@@]4(CCN6CC=C)[C@H]2O8)CC[C@@]3(O)[C@H]1C5 [naloxonazine],6.9,7.9,12.3,rose significantly with the administration of 30 mg/kg,4.9,8.6,14.5,rose significantly with the administration of 3 and 30 mg/kg,–,–,–,–,–,–,–,–,–,–
C=CCN1CC[C@]23c4c5ccc(O)c4O[C@H]2C(=O)CC[C@@]3(O)[C@H]1C5 [naloxone],–,–,–,rose significantly with the administration of 10 mg,–,–,10.4,rose significantly with the administration of 1 mg and 10 mg,7.2,9.2,23.8,30,5.8,7.7,9.5,10.6,10.3,60
O=C1CC[C@@]2(O)[C@H]3Cc4ccc(O)c5c4[C@@]2(CCN3CC2CC2)[C@H]1O5 [naltrexone],7.7,–,–,rose significantly with the administration of 3 and 30 mg/kg,5.1,6.7,10.1,rose significantly with the administration of 30 mg/kg,–,–,–,–,–,–,–,–,–,–
Oc1ccc2c3c1O[C@H]1c4[nH]c5ccccc5c4C[C@@]4(O)[C@@H](C2)N(CC2CC2)CC[C@]314 [naltrindole],7.0,9.2,9.2,rose significantly with the administration of 3 and 30 mg/kg,5.8,9.4,14.1,rose significantly with the administration of 3 and 30 mg/kg,–,–,–,–,–,–,–,–,–,–
